Results on twelve compounds are retold here after the NIST ThermoML archive (doi:10.1016/j.jct.2012.03.005).

The series is described as follows: activity coefficient (dimensionless); of the first substance listed, at infinite dilution; xn = mol fraction of the nth substance listed. To be noted: 101 kPa, Liquid, Chromatography, x1 = 0.

SMILES strings stand for the structures. ± gives the expanded uncertainty stated by the source.

Take `Cc1ccccc1C` [1,2-dimethylbenzene] + CCn1cc[n+](C)c1.CS(=O)(=O)[O-]: the activity coefficient (308.15 K) was 15 ± 1; the activity coefficient (318.15 K) came out at 14.6 ± 1; the activity coefficient (328.15 K) came to 14.3 ± 1; the activity coefficient (338.15 K) was 14 ± 1; the activity coefficient (348.15 K) was 13.8 ± 0.9; the activity coefficient (358.15 K) came to 13.5 ± 0.9.

For `Cc1cccc(C)c1` [1,3-dimethylbenzene] + CCn1cc[n+](C)c1.CS(=O)(=O)[O-], the activity coefficient (308.15 K) turned out to be 19.7 ± 1.3; the activity coefficient (318.15 K) came to 19.1 ± 1.3; the activity coefficient (328.15 K) is 18.6 ± 1.3; the activity coefficient (338.15 K) is 18.1 ± 1.2; the activity coefficient (348.15 K) was determined as 17.6 ± 1.2; the activity coefficient (358.15 K) stood at 17.1 ± 1.2.

With `Cc1ccc(C)cc1` [1,4-dimethylbenzene] + CCn1cc[n+](C)c1.CS(=O)(=O)[O-], the activity coefficient (308.15 K) stood at 18.6 ± 1.3; the activity coefficient (318.15 K) came to 18.7 ± 1.3; the activity coefficient (328.15 K) worked out at 18.7 ± 1.3; the activity coefficient (338.15 K) amounted to 18.8 ± 1.3; the activity coefficient (348.15 K) was 18.8 ± 1.3; the activity coefficient (358.15 K) came to 18.9 ± 1.3.

With `C1COCCO1` [1,4-dioxane] + CCn1cc[n+](C)c1.CS(=O)(=O)[O-], the activity coefficient was found to be 2.6 ± 0.18 (308.15 K); 2.63 ± 0.18 (318.15 K); 2.67 ± 0.18 (328.15 K); 2.69 ± 0.18 (338.15 K); 2.72 ± 0.19 (348.15 K); 2.73 ± 0.19 (358.15 K).

As for `C=CCCCCCCCC` [1-decene] + CCn1cc[n+](C)c1.CS(=O)(=O)[O-], the activity coefficient by setting is: (308.15 K) 654 ± 45; (318.15 K) 584 ± 40; (328.15 K) 528 ± 36; (338.15 K) 479 ± 33; (348.15 K) 434 ± 30.

Regarding `C=CCCCCC` [1-heptene] + CCn1cc[n+](C)c1.CS(=O)(=O)[O-], the activity coefficient is 148 ± 10 (308.15 K); 134 ± 9 (318.15 K); 122 ± 8 (328.15 K); 112 ± 8 (338.15 K); 102 ± 7 (348.15 K).

As to `C#CCCCCC` [1-heptyne] + CCn1cc[n+](C)c1.CS(=O)(=O)[O-], the activity coefficient reads like this: (308.15 K) 14.4 ± 1; (318.15 K) 14.6 ± 1; (328.15 K) 14.5 ± 1; (338.15 K) 14.6 ± 1; (348.15 K) 14.6 ± 1.

Regarding `C#CCCCC` [1-hexyne] + CCn1cc[n+](C)c1.CS(=O)(=O)[O-], the activity coefficient is, setting by setting: (308.15 K) 7.87 ± 0.54; (318.15 K) 8.07 ± 0.55; (328.15 K) 8.06 ± 0.55; (338.15 K) 8.29 ± 0.57; (348.15 K) 8.27 ± 0.56.

`CCC[N+](=O)[O-]` [1-nitropropane] + CCn1cc[n+](C)c1.CS(=O)(=O)[O-]: the activity coefficient is 2.36 ± 0.16 (308.15 K); 2.37 ± 0.16 (318.15 K); 2.37 ± 0.16 (328.15 K); 2.38 ± 0.16 (338.15 K); 2.39 ± 0.16 (348.15 K); 2.39 ± 0.16 (358.15 K).

Take `C#CCCCCCC` [1-octyne] + CCn1cc[n+](C)c1.CS(=O)(=O)[O-]: the activity coefficient (308.15 K) was found to be 26.2 ± 1.8; the activity coefficient (318.15 K) turned out to be 26.2 ± 1.8; the activity coefficient (328.15 K) was 25.6 ± 1.8; the activity coefficient (338.15 K) was 25.3 ± 1.7; the activity coefficient (348.15 K) was 25.1 ± 1.7.

Turning to `CCOC(C)(C)C` [2-ethoxy-2-methylpropane] + CCn1cc[n+](C)c1.CS(=O)(=O)[O-], the activity coefficient reads like this: (308.15 K) 66.5 ± 4.6; (318.15 K) 60.8 ± 4.2; (328.15 K) 57.1 ± 3.9; (338.15 K) 53.5 ± 3.7; (348.15 K) 50 ± 3.4.

Regarding `CCC(C)(C)OC` [2-methoxy-2-methylbutane] + CCn1cc[n+](C)c1.CS(=O)(=O)[O-], the activity coefficient (308.15 K) came out at 40.3 ± 2.8; the activity coefficient (318.15 K) came to 37.8 ± 2.6; the activity coefficient (328.15 K) stood at 35.8 ± 2.5; the activity coefficient (338.15 K) came to 34 ± 2.3; the activity coefficient (348.15 K) amounted to 32.6 ± 2.2.
